Data from patent US4824936A, “(19-Alanine) calcitonin” (Rorer Pharmaceutical Corporation, priority 1987, dated 1989).
Bridge positions count the residues as written; N and C are the ends. Peptide text beside a SMILES is read from it.

Legend:
[1] = system: serum calcium concentration
Procedure: Biological Assay of Calcitonin Analogs in Vivo
Rats were divided into four groups of seven animals, and each group was assigned at random to a dose of standard or test solution. Low and high doses were chosen from the linear portion of the dose-response curve. For the salmon calcitonin standard, the values were 0.7 and 2.1 mcg. peptide/100 g. body weight (BW). This dose approximates 3 and 9 MU/100 g. […] Peptides were given by subcutaneous injection (0.2 ml/100 g. BW) and blood was withdrawn 1 hour later for serum calcium determination. Sera are processed and analyzed within two hours of collection.

[2] = literature values; cited from earlier work

CC(C)C[C@H](NC(=O)[C@H](CCCCN)NC(=O)CNC(=O)[C@H](CC(C)C)NC(=O)[C@@H](NC(=O)[C@@H]1CSSC[C@H](N)C(=O)N[C@@H](CO)C(=O)N[C@@H](CC(N)=O)C(=O)N[C@@H](CC(C)C)C(=O)N[C@@H](CO)C(=O)N[C@@H]([C@@H](C)O)C(=O)N1)C(C)C)C(=O)N[C@@H](CO)C(=O)N[C@@H](CCC(N)=O)C(=O)N[C@@H](CCC(=O)O)C(=O)N[C@@H](CC(C)C)C(=O)N[C@@H](Cc1c[nH]cn1)C(=O)N[C@@H](CCCCN)C(=O)N[C@@H](C)C(=O)N[C@@H](CCC(N)=O)C(=O)N[C@H](C(=O)N[C@@H](Cc1ccc(O)cc1)C(=O)N1CCC[C@H]1C(=O)N[C@@H](CCCNC(=N)N)C(=O)N[C@H](C(=O)N[C@@H](CC(N)=O)C(=O)N[C@H](C(=O)NCC(=O)N[C@@H](CO)C(=O)NCC(=O)N[C@H](C(=O)N1CCC[C@H]1C(N)=O)[C@@H](C)O)[C@@H](C)O)[C@@H](C)O)[C@@H](C)O [[Ala^19]SCT, [19-Alanine] salmon calcitonin] (H-CSNLSTCVLGKLSQELHKAQTYPRTNTGSGTP-NH2; disulfide 1-7)
biological potency ([1]; rat, in vivo, sc): 5400 IU/mg

CC(C)C[C@H](NC(=O)[C@H](CCCCN)NC(=O)CNC(=O)[C@H](CC(C)C)NC(=O)[C@@H](NC(=O)[C@@H]1CSSC[C@H](N)C(=O)N[C@@H](CO)C(=O)N[C@@H](CC(N)=O)C(=O)N[C@@H](CC(C)C)C(=O)N[C@@H](CO)C(=O)N[C@@H]([C@@H](C)O)C(=O)N1)C(C)C)C(=O)N[C@@H](CO)C(=O)N[C@@H](CCC(N)=O)C(=O)N[C@@H](CCC(=O)O)C(=O)N[C@@H](CC(C)C)C(=O)N[C@@H](Cc1c[nH]cn1)C(=O)N[C@@H](CCCCN)C(=O)N[C@@H](CC(C)C)C(=O)N[C@@H](CCC(N)=O)C(=O)N[C@H](C(=O)N[C@@H](Cc1ccc(O)cc1)C(=O)N1CCC[C@H]1C(=O)N[C@@H](CCCNC(=N)N)C(=O)N[C@H](C(=O)N[C@@H](CC(N)=O)C(=O)N[C@H](C(=O)NCC(=O)N[C@@H](CO)C(=O)NCC(=O)N[C@H](C(=O)N1CCC[C@H]1C(N)=O)[C@@H](C)O)[C@@H](C)O)[C@@H](C)O)[C@@H](C)O [standard salmon calcitonin, Salmon calcitonin]
biological potency of the standard, independently determined ([1]; standard used in the assay, independently determined): greater than 4,000 IU/mg

(1,7-alpha-L-amino-suberic acid) eel calcitonin
hypocalcemic potency [2]: about 3400 IU/mg

eel calcitonin [synthetic eel calcitonin]
hypocalcemic potency [2]: around 4300 IU/mg
